Like-named read-outs stand apart in the source and are kept apart here.
Assays:
cardiovascular system = assay: Cardiovascular system in halothane-anesthetized dogs; type: in vivo, dog; conditions: intravenous infusion up to 3-mg/kg as free base; non-GLP
Procedure: Effects of Compound A on the cardiovascular system were evaluated with halothane-anesthetized dogs. Doses of 0, 0.3, 1, and 3 mg/kg of Compound A as free base were infused intravenously in ascending order to the same 3 male dogs at 0.1 mL/kg/min for 10 minutes cumulatively with 30 minutes interval between the start of infusion. Heart rate, systolic, diastolic, and mean blood pressure, cardiac output, total peripheral resistance, left ventricular end-diastolic pressure, maximum upstroke velocity of the left ventricular pressure, and electrocardiogram parameters (PR interval, QRS duration, QT interval, and QTcV) were evaluated.

[1] = target: T1, CYP 11β2 beta hydroxylase (Homo sapiens, UniProt P19099); assay: PKPD modeling of SAD study data: time above IC50; type: in vivo; conditions: aldosterone
T1 construct: estimated based on PKPD modeling of data from the SAD study; from tissue; host or cells: adrenal cortex of human study subjects (in vivo)
T1 sequence (P19099 25-503): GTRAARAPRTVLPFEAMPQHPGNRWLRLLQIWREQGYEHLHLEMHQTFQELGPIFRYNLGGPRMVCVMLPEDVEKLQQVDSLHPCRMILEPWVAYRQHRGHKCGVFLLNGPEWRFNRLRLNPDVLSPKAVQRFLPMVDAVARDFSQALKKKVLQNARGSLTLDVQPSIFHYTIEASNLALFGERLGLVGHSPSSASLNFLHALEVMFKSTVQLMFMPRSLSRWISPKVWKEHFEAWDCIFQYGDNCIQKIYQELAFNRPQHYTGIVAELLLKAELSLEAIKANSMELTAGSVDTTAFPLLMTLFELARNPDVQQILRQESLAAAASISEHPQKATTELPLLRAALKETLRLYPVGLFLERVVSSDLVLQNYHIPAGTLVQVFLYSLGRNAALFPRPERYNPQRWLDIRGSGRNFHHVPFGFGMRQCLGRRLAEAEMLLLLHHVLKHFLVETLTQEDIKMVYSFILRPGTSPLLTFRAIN
Procedure: A randomized, double-blinded, placebo-controlled study was conducted in which 116 patients were randomized and 87 received Compound A HBr.
A single ascending dose (SAD) study was conducted with the following dosing amounts tested: • (a) 5 mg • (b) 10 mg • (c) 20 mg • (d) 50 mg • (e) 100 mg • (f) 200 mg • (g) 400 mg • (h) 800 mg.
The IC50 of inhibition of CYP […] by Compound A HBr and the time above IC50 for each dosing amount were estimated based on PKPD modeling of data from the SAD study.

[2] = Phase 1 part 1 single ascending dose: pharmacokinetics; type: in vivo, human; conditions: for half-life / Tmax: male, human, plasma, oral
Procedure: A 4-part, Phase 1 randomized, double-blind, placebo-controlled, first-in-human study was performed to determine the safety, tolerability, PK, and PD of single ascending doses (SADs; part 1) and multiple ascending doses (MADs; part 2) of Compound A HBr in healthy participants. The study also assessed whether there were sex (part 3) and age-related (part 4) effects on the PK of a single dose of Compound A HBr. The study was approved by the local independent ethics committee; the BEBO foundation in Assen, Netherlands; and the Central Committee on Research Involving Human Subjects in The Hague, Netherlands; and conducted according to the provisions of the Declaration of Helsinki. Written informed consent was obtained from each study participant before conducting any protocol-related procedures.
In part 1, Compound A HBr or placebo was administered to 64 healthy Caucasian men aged 18 to 55 years (inclusive) in 8 cohorts of 8 participants each. In each cohort, 6 participants were randomized to receive a single dose of Compound A HBr and 2 participants were randomized to receive matching placebo. All cohorts included 2 sentinel participants of whom 1 received Compound A HBr and 1 received matching placebo. The remaining 6 participants, of whom 5 received Compound A HBr and 1 received placebo, were dosed ≥24 hours following the sentinel participants. The dosing cohorts were 5, 10, 20, 50, 100, 200, 400, and 800 mg. Doses were administered in an ascending order per cohort, with a minimum 10-day interval between consecutive dose levels. Participants received a single dose of Compound A HBr or placebo in the fasted state.
Plasma PK parameters were derived by non-compartmental analysis using WinNonlin® (version 6.3). Dose proportionality was assessed using the power model with AUC0-∞, AUC0-last, and Cmax for part 1 (SAD) and with AUC0-last, AUC0-∞, AUC0-τ, and Cmax for part 2 (MAD). A linear model (ln(Y)=α+β×ln(X), where Y is the pharmacokinetic parameter and X is the dose) was used to fit the power model, after log-transformation of the parameters. Dose proportionality was concluded if the 95% confidence interval (CI) for slope (β) included the value 1.
An analytical method for the determination of Compound A in human plasma (dipotassium ethylenediaminetetraacetic acid [K2-EDTA]) and human urine using solid-phase extraction and high-performance liquid chromatography with mass spectrometric detection was successfully validated over the concentration range 0.1000 ng/mL (lower limit of quantification) to 100.0 ng/mL prior to initiation of the clinical trial. […] For all other analytes, validated quantitative measurement methods were used.

With `CC(=O)N[C@H]1CC[C@H](NC(=O)CN2CCN(c3nncc(-c4ccc(C)cc4)n3)CC2)CC1` [Compound A] as the compound, how does the “effects on the cardiovascular system” value (cardiovascular system) read?
Its value is “no effects”.

Which results are given for `CC(=O)N[C@H]1CC[C@H](NC(=O)CN2CCN(c3nncc(-c4ccc(C)cc4)n3)CC2)CC1` [Compound A HBr]?
% 24 hr above IC50 ([1]; 12.5 mg BID): 25%; % 24 hr above IC50 ([1]; 12.5 mg QD): 8%; % 24 hr above IC50 ([1]; 25 mg BID): 52%; % 24 hr above IC50 ([1]; 50 mg QD): 38%; % 24 hr above IC50 ([1]; 100 mg QD): 56%; half-life ([2]; single 5 mg, fasted, read-out: T 1/2, mean (SD) (converted)): 8 h; half-life ([2]; single 10 mg, fasted, read-out: T 1/2, mean (SD) (converted)): 8 h; Tmax ([2]; single 10 mg, fasted, read-out: Tmax, median and range): 1.25 h; Tmax ([2]; single 200 mg, fasted, read-out: Tmax, median and range): 1.25 h; Tmax ([2]; single 400 mg, fasted, read-out: Tmax, median and range): 1.25 h; half-life ([2]; single 800 mg, fasted, read-out: T 1/2, mean (SD) (converted)): 11 h; Tmax ([2]; single doses 5 to 800 mg, read-out: Median Tmax values): 1 to 1.5 h; half-life ([2]; single doses 5 to 800 mg, read-out: mean t1/2 values): 7.92 to 10.5 h; AUC0-inf, mean (SD) ([2]; single 5 mg, fasted): 231 (25) ng × h/mL; Cmax, mean (SD) ([2]; single 5 mg, fasted): 37 (7) ng/mL; Tmax, median and range ([2]; single 5 mg, fasted): 1.5 (1-3) h; AUC0-inf, mean (SD) ([2]; single 10 mg, fasted): 451 (46) ng × h/mL; Cmax, mean (SD) ([2]; single 10 mg, fasted): 76 (20) ng/mL; AUC0-inf, mean (SD) ([2]; single 20 mg, fasted): 768 (182) ng × h/mL; Cmax, mean (SD) ([2]; single 20 mg, fasted): 141 (76) ng/mL; Tmax, median and range ([2]; single 20 mg, fasted): 1.5 (1-3) h; AUC0-inf, mean (SD) ([2]; single 50 mg, fasted): 2155 (258) ng × h/mL; Cmax, mean (SD) ([2]; single 50 mg, fasted): 573 (206) ng/mL; T 1/2, mean (SD) ([2]; single 50 mg, fasted): 9 (2) h; Tmax, median and range ([2]; single 50 mg, fasted): 1 (0.5-3) h; AUC0-inf, mean (SD) ([2]; single 100 mg, fasted): 5366 (493) ng × h/mL; Cmax, mean (SD) ([2]; single 100 mg, fasted): 1211 (248) ng/mL; Tmax, median and range ([2]; single 100 mg, fasted): 1.5 (1-3) h; AUC0-inf, mean (SD) ([2]; single 200 mg, fasted): 10645 (3486) ng × h/mL; Cmax, mean (SD) ([2]; single 200 mg, fasted): 2848 (1015) ng/mL; T 1/2, mean (SD) ([2]; single 200 mg, fasted): 10 (4) h; AUC0-inf, mean (SD) ([2]; single 400 mg, fasted): 17257 (2907) ng × h/mL; Cmax, mean (SD) ([2]; single 400 mg, fasted): 4455 (862) ng/mL; AUC0-inf, mean (SD) ([2]; single 800 mg, fasted): 29331 (3623) ng × h/mL; Cmax, mean (SD) ([2]; single 800 mg, fasted): 7708 (1617) ng/mL; Tmax, median and range ([2]; single 800 mg, fasted): 1.5 (0.5-4) h; dose proportionality of AUC0-last and AUC0-∞ ([2]; single doses 5 to 800 mg): dose-proportional increase
